What was measured:
[1] = test system: MCF7; experiment: Cytotoxicity against human MCF7 cells at 50 uM after 48 hrs by MTT assay; assay type: functional; conditions: MCF7, 48 h, read-out: GI
[2] = Cytotoxicity against human FR2 cells at 50 uM after 48 hrs by MTT assay; assay type: cell-based; conditions: read-out: GI
[3] = test system: MCF7; experiment: Cytotoxicity against human MCF7 cells after 48 hrs by MTT assay; assay type: functional, cell-based; conditions: MCF7, 48 h
[4] = test system: A549; experiment: Cytotoxicity against human A549 cells at 50 uM after 48 hrs by MTT assay; assay type: functional; conditions: A549, 48 h, read-out: GI
[5] = Cytotoxicity against human THP1 cells after 48 hrs by MTT assay; assay type: functional, cell-based; conditions: THP-1, 48 h
[6] = test system: A549; experiment: Cytotoxicity against human A549 cells after 48 hrs by MTT assay; assay type: functional, cell-based; conditions: A549, 48 h
[7] = Cytotoxicity against human FR2 cells after 48 hrs by MTT assay; assay type: cell-based; conditions: FR2, 48 h
[8] = Cytotoxicity against human HCT116 cells at 50 uM after 48 hrs by MTT assay; assay type: functional; conditions: HCT-116, 48 h, read-out: GI
[9] = Cytotoxicity against human THP1 cells at 50 uM after 48 hrs by MTT assay; assay type: functional; conditions: THP-1, 48 h, read-out: GI
[10] = Cytotoxicity against human HCT116 cells after 48 hrs by MTT assay; assay type: functional, cell-based; conditions: HCT-116, 48 h

Row | Compound | inhibition of growth at 50 µM [1] [%] | inhibition at 48 h, 50 µM [2] [%] | IC50 [3] [µM] | inhibition of growth at 50 µM [4] [%] | IC50 [5] [µM] | IC50 [6] [µM] | IC50 [7] [µM] | inhibition of growth at 50 µM [8] [%] | inhibition of growth at 50 µM [9] [%] | IC50 [10] [µM]
1 | C[C@H]1[C@H](C)CC[C@]2(C(=O)O)CC[C@]3(C)C(=CC[C@@H]4[C@@]5(C)C/C(=C\c6ccc(Br)cc6)C(=O)C(C)(C)[C@@H]5CC[C@]43C)[C@H]12 | 98 | 95 | 5 | 60 | 5 | 15 | 35 | 53 | 95 | 32
2 | C[C@H]1[C@H](C)CC[C@]2(C(=O)O)CC[C@]3(C)C(=CC[C@@H]4[C@@]5(C)C/C(=C\c6cccc(Cl)c6)C(=O)C(C)(C)[C@@H]5CC[C@]43C)[C@H]12 | 70 | 80 | 29 | 65 | 5 | 7 | 45 | 90 | 85 | 4.1
3 | C[C@H]1[C@H](C)CC[C@]2(C(=O)O)CC[C@]3(C)C(=CC[C@@H]4[C@@]5(C)C/C(=C\c6ccccc6)C(=O)C(C)(C)[C@@H]5CC[C@]43C)[C@H]12 | 98 | 90 | 23 | 60 | 16 | 18 | 70 | 95 | 90 | 14
4 | COc1cc(OC)c(OC)cc1/C=C1\C[C@]2(C)[C@H]3CC=C4[C@@H]5[C@@H](C)[C@H](C)CC[C@]5(C(=O)O)CC[C@@]4(C)[C@]3(C)CC[C@H]2C(C)(C)C1=O | 76 | 76 | 20 | 60 | 2 | 9 | 40 | 85 | 80 | 12
5 | C[C@H]1[C@H](C)CC[C@]2(C(=O)O)CC[C@]3(C)C(=CC[C@@H]4[C@@]5(C)C/C(=C\c6ccc([N+](=O)[O-])cc6[N+](=O)[O-])C(=O)C(C)(C)[C@@H]5CC[C@]43C)[C@H]12 | 98 | 95 | 4.1 | 98 | 4.1 | 2 | 70 | 98 | 98 | 5
6 | C[C@H]1[C@H](C)CC[C@]2(C(=O)O)CC[C@]3(C)C(=CC[C@@H]4[C@@]5(C)C/C(=C\C=C\c6ccccc6)C(=O)C(C)(C)[C@@H]5CC[C@]43C)[C@H]12 | 99 | 80 | 12 | 89 | 16 | 0.65 | 38 | 98 | 93 | 2.1
7 | COc1cccc(/C=C2\C[C@]3(C)[C@H]4CC=C5[C@@H]6[C@@H](C)[C@H](C)CC[C@]6(C(=O)O)CC[C@@]5(C)[C@]4(C)CC[C@H]3C(C)(C)C2=O)c1 | 98 | 85 | 4.2 | 84 | 12 | 0.65 | 40 | 65 | 95 | 23
8 | C[C@H]1[C@H](C)CC[C@]2(C(=O)O)CC[C@]3(C)C(=CC[C@@H]4[C@@]5(C)C/C(=C\c6ccccc6[N+](=O)[O-])C(=O)C(C)(C)[C@@H]5CC[C@]43C)[C@H]12 | 73 | 78 | 30 | 64 | 1.1 | 6.4 | 44 | 91 | 86 | 5
9 | C[C@H]1[C@H](C)CC[C@]2(C(=O)O)CC[C@]3(C)C(=CC[C@@H]4[C@@]5(C)C/C(=C\c6ccc7ccccc7c6)C(=O)C(C)(C)[C@@H]5CC[C@]43C)[C@H]12 | 90 | 75 | 21 | 60 | 5 | 16 | 40 | 89 | 98 | 0.53
10 | C[C@H]1[C@H](C)CC[C@]2(C(=O)O)CC[C@]3(C)C(=CC[C@@H]4[C@@]5(C)C/C(=C\c6ccc(Cl)cc6)C(=O)C(C)(C)[C@@H]5CC[C@]43C)[C@H]12 | 99 | 99 | 4.1 | 99 | 12 | 2.9 | 69 | 99 | 99 | 15
11 | C[C@H]1[C@H](C)CC[C@]2(C(=O)O)CC[C@]3(C)C(=CC[C@@H]4[C@@]5(C)CC[C@H](O)C(C)(C)[C@@H]5CC[C@]43C)[C@H]12 [URSOLIC ACID] | 57 | 66 | – | 61 | 9.1 | – | 31 | 53 | 84 | 42
12 | COc1cc(/C=C2\C[C@]3(C)[C@H]4CC=C5[C@@H]6[C@@H](C)[C@H](C)CC[C@]6(C(=O)O)CC[C@@]5(C)[C@]4(C)CC[C@H]3C(C)(C)C2=O)cc(OC)c1OC | 99 | 81 | 4 | 99 | 9.1 | < 0.9 | 35 | 99 | 93 | < 0.9
13 | C[C@H]1[C@H](C)CC[C@]2(C(=O)O)CC[C@]3(C)C(=CC[C@@H]4[C@@]5(C)C/C(=C\c6ccc([N+](=O)[O-])cc6)C(=O)C(C)(C)[C@@H]5CC[C@]43C)[C@H]12 | 95 | 99 | 5 | 99 | 14 | 2 | 69 | 95 | 95 | 12
14 | O=c1[nH]cc(F)c(=O)[nH]1 [FLUOROURACIL] | 92 | – | 2 | 82 | 1.7 | 1.4 | – | 79 | 89 | 2.3
15 | COc1ccccc1/C=C1\C[C@]2(C)[C@H]3CC=C4[C@@H]5[C@@H](C)[C@H](C)CC[C@]5(C(=O)O)CC[C@@]4(C)[C@]3(C)CC[C@H]2C(C)(C)C1=O | 99 | 85 | 5 | 90 | 0.9 | 0.5 | 8.6 | 98 | 96 | 2.1
16 | C[C@H]1[C@H](C)CC[C@]2(C(=O)O)CC[C@]3(C)C(=CC[C@@H]4[C@@]5(C)C/C(=C\c6cccc7ccccc67)C(=O)C(C)(C)[C@@H]5CC[C@]43C)[C@H]12 | 96 | 97 | 12 | 58 | 2.1 | 17 | 68 | 99 | 90 | 0.64
17 | C[C@H]1[C@H](C)CC[C@]2(C(=O)O)CC[C@]3(C)C(=CC[C@@H]4[C@@]5(C)C/C(=C\c6ccc(O)cc6)C(=O)C(C)(C)[C@@H]5CC[C@]43C)[C@H]12 | 98 | 90 | 5 | 98 | 4.1 | 2.1 | 70 | 99 | 99 | 15
18 | C[C@H]1[C@H](C)CC[C@]2(C(=O)O)CC[C@]3(C)C(=CC[C@@H]4[C@@]5(C)CCC(=O)C(C)(C)[C@@H]5CC[C@]43C)[C@H]12 [URSONIC ACID] | 42 | 86 | 56 | 78 | 13 | 15 | 24 | 53 | 88 | 2.3
